One assay concerns the target T1, purified HIV proteinase (Human immunodeficiency virus type 1 group M subtype B, UniProt P04585).
T1 construct: purified HIV proteinase
Description: biochemical. The procedure:
Representative compounds were tested for HIV protease activity in a spectrophotometric enzyme assay using the chromogenic substrate His-Lys-Ala-Arg-Val-Leu-p-nitro-Phe-Glu-Ala-Nle-Ser-amide and purified HIV proteinase. The rate of cleavage is followed by continuously registering the change in absorbance at 300 nm. […]

The test system of a further assay is HIV-1. Description: HIV-1 infected MT4 cell culture, XTT assay. The assay is classed as cell-based. The procedure: Compounds are also tested for HIV protease activity in cell culture. MT4 cells grown in RPMI 1640 cell culture medium including 10% fetal calf serum are infected with 10 TCID HIV-1 per 2×10^5 cells and cultured for 6 days. XTT is added and the amount of XTT formazan produced in the following 6 hours represents the number of surviving cells. Results are expressed as the ED50, that is the concentration in μg/ml of the compound of the invention which suppresses viral replication by 50%.
For orientation: Tetrazolium dyes change colour on reduction, which living cells bring about.

Setting [1] is: values in parentheses, affinity constant, read-out: (Ki μM).
[2] abbreviates: Human immunodeficiency virus 1, 144 h, second part of Table 1, head EC50, MT4 cells, HIV-1, 6 days, XTT, read-out: EC50.
Where [3] appears, read: Human immunodeficiency virus 1, MT4, 144 h.

Values after ≈ are worked out from the molar mass of the structure shown. Read-outs that look alike come from different tables or passages of the source.

Take `CNC(=O)C(NC(=O)C(OCc1ccccc1F)C(O)C(O)C(OCc1ccccc1F)C(=O)NC(C(=O)NC)C(C)C)C(C)C` [Example 19, N1,N6-di[(1S)-2-methyl-1-(methylcarbamoyl)propyl]-(2R,3R,4R,5R)-2,5-di[4-(2-fluorobenzyl)oxy]-3,4-dihydroxyhexanediamide]: the Ki (usually the dissociation constant of the complex between target and ligand, obtained from inhibition or displacement) on purified HIV proteinase (setting [1]) is 0.5 nM. In addition, in the assay with HIV-1 (setting [2]), the EC50 – broadly, the concentration giving half of the maximal effect – was 0.8 µg/mL (≈ 1.23 µM).
For the compound `CNC(=O)[C@@H](NC(=O)[C@H](OCc1ccc(C2=C(O)C(=O)CCC2)cc1)[C@H](O)[C@@H](O)[C@@H](OCc1ccc(C2=C(O)C(=O)CCC2)cc1)C(=O)N[C@H](C(=O)NC)C(C)C)C(C)C` [Example 33], on purified HIV proteinase, the affinity, expressed as Ki, was 0.5 nM. The response in the assay with HIV-1 (setting [3]) was half-maximal at 0.2 µg/mL (≈ 0.24 µM) (EC50).
As for `CNC(=O)[C@@H](NC(=O)[C@H](OCc1ccc(-c2cccs2)cc1)[C@H](O)[C@@H](O)[C@@H](OCc1ccc(-c2cccs2)cc1)C(=O)N[C@H](C(=O)NC)C(C)C)C(C)C` [Example 25, N1,N6-di[(1S)-2-methyl-1-(methylcarbamoyl)propyl]-(2R,3R,4R,5R)-2,5-di[4-(2-thienyl)benzyloxy]-3,4-dihydroxyhexanediamide], on purified HIV proteinase, the inhibitory constant (Ki) amounted to 0.17 nM. In the assay with HIV-1 (setting [3]), this compound showed a concentration giving a half-maximal response (EC50) of 0.02 µg/mL (≈ 0.0257 µM).
With `O=C(NCc1c(F)cccc1Cl)[C@H](OCc1ccccc1F)[C@H](O)[C@@H](O)[C@@H](OCc1ccccc1F)C(=O)N[C@H]1c2ccccc2C[C@H]1O` [Example 27, N1-[(1S,2R)-2-hydroxy-2,3-dihydro-1H-1-indenyl]-N6-(2-chloro-6-fluorobenzyl)-(2R,3R,4R,5R,)-2,5-di(2-fluorobenzyloxy)-3,4-dihydroxyhexanediamide], the Ki at purified HIV proteinase (setting [1]) amounted to 1.4 nM. Moreover, the concentration giving a half-maximal response (EC50) with HIV-1 (setting [2]) came out at 0.8 µg/mL (≈ 1.14 µM).
Consider `CNC(=O)C(NC(=O)C(OCc1ccc(-c2ccccn2)cc1)C(O)C(O)C(OCc1ccc(-c2ccccn2)cc1)C(=O)NC(C(=O)NC)C(C)C)C(C)C` [Example 22, N1,N6-di[(1S)-2-methyl-1-(methylcarbamoyl)propyl]-(2R,3R,4R,5R)-2.5-di[4-(2-pyridyl)benzyloxy]-3,4-dihydroxyhexanediamide], for which affinity on purified HIV proteinase was put at a Ki of 0.61 nM. Moreover, in the assay with HIV-1 (setting [3]), the 50% effective concentration (EC50) was 0.4 µg/mL (≈ 0.52 µM).
The corresponding values for `CNC(=O)[C@@H](NC(=O)[C@H](OCc1ccc(/C=C/C(=O)OC)cc1)[C@H](O)[C@@H](O)[C@@H](OCc1ccc(/C=C/C(=O)OC)cc1)C(=O)N[C@H](C(=O)NC)C(C)C)C(C)C` [Example 31] are 0.09 nM and 0.3 µg/mL (≈ 0.383 µM).
`O=C(N[C@H]1c2ccccc2C[C@H]1O)[C@H](OCc1cccc(F)c1)[C@H](O)[C@@H](O)[C@@H](OCc1cccc(F)c1)C(=O)N[C@H]1c2ccccc2C[C@H]1O` [Example 18, N1,N6-di[(1 S,2R)-2-hydroxy-2,3-dihydro-1H-1-indenyl]-(2R,3R,4R,5R)-2,5-di(3-fluorobenzyloxy)-3,4-dihydroxyhexanediamide]: at purified HIV proteinase (setting [1]), the inhibition constant (Ki) was determined as 50 nM. In the assay with HIV-1 (setting [2]), the half-maximal effective concentration (EC50) worked out at 0.5 µg/mL (≈ 0.726 µM).
For the compound `O=C(N[C@H]1c2ccccc2C[C@H]1O)[C@@H](C[C@@H](O)[C@@H](OCc1ccccc1)C(=O)N[C@H]1c2ccccc2C[C@H]1O)OCc1ccccc1` [Example 26, N1,N6-di[(1S,2R)-2-hydroxy-2,3-dihydro-1H-1-indenyl]-(2R,3R,5R)-2,5-di(benzyloxy)-3-hydroxyhexanediamide], the inhibition constant Ki at purified HIV proteinase (setting [1]) came out at 0.97 nM. Further, the half-maximal effective concentration (EC50) in the assay on HIV-1 (setting [2]) worked out at 0.8 µg/mL (≈ 1.26 µM).
On to `CNC(=O)[C@@H](NC(=O)[C@H](OCc1ccccc1)[C@H](O)[C@@H](O)[C@@H](OCc1ccccc1)C(=O)N[C@H](C(=O)NC)c1ccccc1)c1ccccc1` [Example 16, N1,N6-di[(1S)-1-phenyl-1-(methylcarbamoyl)methyl]-(2R,3R,4R,5R)-2,5-di(benzyloxy)-3,4-dihydroxyhexanediamide], for which the inhibitory constant (Ki) on purified HIV proteinase (read-out: (Ki μM)) turned out to be 2.3 nM. Also, the concentration for a half-maximal effect (EC50) with HIV-1 (setting [3]) turned out to be 1 µg/mL (≈ 1.46 µM).

(Values after patent publication US6489364B2, “Antiviral protease inhibitors” (priority 1997, dated 2002).)
